Earlier results on two compounds are cited in patent EP1228757B1 (Uni-Pharma Kleon Tsetis Pharmaceutical Laboratories S.A., priority 2001, dated 2002).

In general, LD50 refers to the dose at which mortality reaches 50%.

The data set concerns albino rats. The note with it: endo-peritoneally administered to albino rats.

For `CC(O)CO` (centres unmarked) [Propylene glycol], the median lethal dose (LD50) result is “higher than 8000 mg/kg”.

On to Glycerol formal, for which the LD50 is 3000 mg/kg.
